Results as given in patent publication US7258861B2, “TNF-derived peptides for use in treating oedema” (Innogenetics N.V., priority 2001, dated 2007).
Where “and” joins values, the source holds several entries; their conditions need not be identical. Identical values can stand only once. Positions of bridges follow the written chain, without caps; N, C: chain ends. Residues, ends and D or L forms follow the SMILES beside them. No end group written: not given here. *: point of attachment. Biotin = O=C1N[C@H]2[C@H](CS[C@H]2CCCCC(=O)*)N1

Columns and labels:
[1] = test system: ex vivo instilled rat lung; test: Ex vivo rat flooded lung, model of hydrostatic edema; settings: for clearing alveolar fluid content ex vivo: after intratracheal instillation; for clearing alveolar fluid content ex vivo / activity in fluid clearance: summary in words
Description: In this model edema is induced by instillating 2 ml of 0.9% NaCl solution intratracheally. Alternatively, edema formation can be modulated by varying the height of the venous outflow and the perfusion buffer containing reservoir, or alternatively by varying the time the lung is exposed to the elevated pressure. […] The clearance of alveolar fluid from the lung is calculated by means of measuring the concentration of HSA, which is added to the instillate over time. Alternatively, the over time weight loss as a measure of edema resorption (high weight loss is high liquid clearance), of the artificially instilled lung can be measured. The lung tidal volume, compliance and weight are monitored continuously during the experiment. At the end of the experiment bronchoalveolar fluid and supernatant of lung homogenate is taken for measurement of inflammatory mediators.
The lungs of female Wistar rats (weight 200–250 g; Harlan-Winkelmann, Borchen, Germany) are prepared after terminal i.p. anesthesia by 160 mg/kg pentobarbitural —Na (Merial Ltd, Halbermoos, Germany) and perfused as described by Uhlig and Wolin (1994), and by Uhlig and von Bethmann (1997). All equipment is obtained from Hugo Sachs Electronics (March-Hugstetten, Germany). […] As perfusion medium, a Krebs-Henseleit buffer (38° C.) containing 2% bovine serum albumin (Fraction V, Scrva. Heidelberg, Germany), 0.1% glucose (Riedel-de-Haën Inc., Seelze, Germany), and 0.3% HEPES (ICN Biomedicals Inc., Ohio, USA) is used. The total amount of recirculating buffer is 100 ml. The lungs are suspended by the trachea and ventilated by negative pressure ventilation (inspiratory pressure: −7 cm H2O, expiratory pressure: −2 cm H2O) with 80 breaths per minute resulting in a tidal volume of approximately 2 ml. Every 5 minutes, a deep inspiratory breath (−20 cm H2O) is performed. Artificial thorax chamber pressure is measured with a differential pressure transducer (Validyne DP 45-14), and an air flow velocity with a pneumotachograh tube (Fleisch Type 0000) connected to a differential pressure transducer (Validyne DP 45-15). The perfusate flow (Narcomatic RT-500) and the arterial and venous pressure (Statham P23BB) are continuously monitored. The pH of the perfusate before entering the lung is kept at 7.25 to 7.35 by automatic bubbling of the buffer with CO2 as soon as the pH exceeds this range. A weight transducer is integrated into the chamber lid which allows the continuous assessment of lung weight. Data are recorded on a Pentium II computer using the Mathlab Sofware package (Mathworks, Inc., Nattick Mass., USA). For lung mechanics, the data are analyzed by applying the following formula: P=1/C*VT+RLdV/dT
Where P is chamber pressure, C pulmonary compliance, VT tidal volume, and RL airway resistance. All lung physiology parameters were normalized to time point 0, i.e. after the end of the preconditioning perfusion of 40 minutes.

isolated rat lungs = test: Isolated blood perfused flooded rat lung (weight, lung mechanics, PV curves, histology); settings: pretreated lungs after flooding and 2 hours reperfusion
Description: Rats. For the ex vivo experiments, 31 Sprague-Dawley rats (300 to 350 g) were tracheotomized and mechanically ventilated (40% oxygen in air) under isoflurane anesthesia. The experimental protocol was reviewed and approved by the Ethics Committee for Animal Research and by the Veterinary Office of our institution. The femoral vessels were cannulated for blood sampling, fluid replacement, and continuous arterial blood pressure monitoring. Following anticoagulation (1.5 IU/g i.v. heparin), 20 ml of blood were withdrawn and replaced by an equal volume of dextran-40 (Macrodex 10% in normosaline) to serve as priming volume for the isolated perfusion circuit. The heart-lung block was prepared as described by Ma et al., 2000, weighed and assigned to one of four groups. […] The lungs were suspended, mechanically ventilated, and perfused at constant pressure with autologous blood as described by Ma et al., 2000.
An inspiratory and expiratory quasi-static pressure-volume (PV) curve was performed at the end of the 2-hour reperfusion period by inflating and then deflating the lungs at a constant rate (0.3 ml/sec) using an automated infusion pump. A sigh was applied in all groups every 15 minutes to minimize atelectasis formation. The blood pH was maintained between 7.3 and 7.5 and, if necessary, corrected with sodium bicarbonate 8.4% or a change of the inspired CO2 as required by the blood gas analysis. Every 30 minutes, a blood sample was collected for blood gas analysis as well as for hematocrit and electrolyte concentration.
Inclusion criteria. Immediately following the start of reperfusion, the preparation had to fulfill three technical inclusion criteria: • 1) left atrial pressure (LAP) 5-10 mmHg; • 2) peak airway pressure (AWP) <15 cmH2O; and • 3) pulmonary blood flow (PBF) >10 ml/min. […] The included lungs were then flooded with gentle intratracheal instillation of 2 ml normal saline and the recorded variables measured for 2 subsequent hours.
Histological analysis. Random lung samples were fixed for light and electron microscopy and analyzed by pathologists blinded to the lung's protocol group assignment.

[2] = test system: left lung of Fischer (F344) rats; test: Rat model of lung reperfusion injury (warm ischemia and reperfusion); format: in vivo
Description: In a modification of the model of Ohno et al. (1993) male Fischer (F344) rats (200–250 g) undergo clamping of the left pulmonary artery, pulmonary vein and main bronchus for 36 minutes of warm ischemia. After reperfusion of the left lung, the right lung is occluded to assess the function of the left lung for 90 minutes. The peptide is given at 3 minutes after reperfusion by either instillation or intravenous injection via the subclavian vein.
• 1. Anaesthesia of the rat in a glass chamber, 4% Halothane and Oxygen 4/min. • 2. Intubation of the rat with a 1.8 mm catheter, • 3. Shaving the fur on the abdomen and left side of the animal. • 4. Ventilation via the tracheal tube 100/min, 2.5 ml 20% oxygen, Harvard Rodent Ventilator (Harvard Apparatus, South Natick, Mass.), PEEP 5 mm H2O. • 5. A left thoracotomy is carried out in the in 4th intercostal space. • 6. Dissection of the left lung hilar region. • 7. Microvascular clips are placed around the left pulmonary artery (PA), Pulmonary vein (PV) and left main bronchus (B) to induce warm ischemia of the left lung. Small circulation is still ongoing through the right lung. This is the start of the Warm Ischemia Time (WIT). • 8. Anaesthaesia is maintained with 2% Halothane, 40% Oxygen. • 9. A provisory Z suture is made to temporary close the thoracotomy and a gaze sponge is put on the animal to decrease warmth loss. • 10. Near the end of the WIT, a thoracophrenolaparatomy in the midline with thorough electrocaterisation. (two peans on the sternum). • 11. Putting 2-0 Softsilk on the trachea around the intubation tube. • 12. Dissection of the right hilar elements. • 13. Taking away microvascular clips from the left hilar elements. End of WIT of the left lung after 36 minutes. • 14. Putting microvascular clips on right PA and B. Small circulation only through left lung. Start developing of left oedema time (LLOT). • 15. After 3 minutes of LLOT: instillation of the drug in 0.5 ml of 0.9% saline solution (Baxter) or injection of the drug in 0.25–0.3 ml of 0.9% saline through the subclavian vein. • 16. After 6, 30, 60 and 90 minutes of LLOT, puncture of the Aortic Arch (AA) with needle for blood gas analysis in Radiometer ABL 700 Serie, (Denmark). • 17. After each puncture the AA puncture hole is pressed with a cotton swab. • 18. Blood gas analysis is taken every time from AA (the heart rate should be over 60). • 19. After the last blood gas analysis (90 minutes), both lungs are flushed via the PA with 20 ml of 0.9% saline at a pressure of 20 cm H2O. […] The heart-lung block is excised for storage under formaline or in the freezer awaiting immunohistopathological analysis. Alternatively, the lung can be excised without flushing to assess wet to dry ratio's. Results (FIG. 7)

[3] = test system: lung microvascular endothelial cells; test: Whole-cell patch clamp, membrane conductance in lung microvascular endothelial cells; format: cell-based, mouse; settings: 30 min preincubation at acidic pH (pH 6); TNF, mutTNF 100 ng/ml, peptides 100 μg/ml
From the text: Animals, cells and reagents. Male CBA/J or C57BL/6 mice, as well as male TNFR ½^0/0 C57BL/6 mice deficient in TNF receptors (Bruce et al., 1996) provided by H. Bluethmann, F. Hoffmann-La Roche, Basel, Switzerland, were used at the age of 8–10 weeks. Their care was in accordance with institutional guidelines. Lung microvascular endothelial cells were isolated from CBA/J mice and characterized as described (Jackson et al., 1990) using magnetic beads (Dynabeads M-450, Dynal, Oslo, Norway), covalently bound to a purified rat-anti-mouse PECAM-1 monoclonal antibody (donated by B. Imhof, University of Geneva). Microvascular lung endothelial cells were resuspended in DMEM containing 2 mM L-glutamine, 100 U/ml penicillin, […], 20% FCS, 40 U/ml heparin and […] endothelial cell growth supplement (Brunschwig Chemie, Basel, Switzerland). For patch clamp experiments, cells were plated onto 35×10 mm easy grip Petri dishes (Beckton Dickinson, Plymouth, UK), pre-coated with 0.2% gelatin (Sigma, Buchs, Switzerland). Resident peritoneal macrophages, isolated in ice cold RPMI containing antibiotics and 10 U/ml Heparin, were left to adhere onto 35×10 mm easy grip Petri dishes for 4 h, after which the non-adherent cells were removed. Cells were grown in RPMI 1640 containing 2 mM L-glutamine, 100 U/ml penicillin, 10 μpg/ml streptomycin and 10% fetal bovine serum (all from Gibco). For patch clamp, the macrophages ware used 24 h after isolation.
Electrophysiology. Cells were pretreated for 30 min with TNF, mutTNF and tip peptides at 37° C. in a buffer consisting of 145 mM NaCl, 3 mM KCl, 2mM CaCl2, 2mM MgCl2, 10 mM D-glucose, and 10mM Hepes, and pH-adjusted with NaOH to required value. Cells were then washed with the same buffer pH-adjusted at 7.3, and experiments were performed using the tight-seal, whole-cell recording technique. Currents were recorded with an Axopatch-200A amplifier (Axon Instrument Inc, Foster City, Calif., USA), low pass-filtered at 1 kHz. Digitalization and off-line analysis was performed using the WCP program (J. Dempster, Strathclyde Electrophysiology Software, Glasgow, UK). Patch pipettes were pulled from borosilicate glass and fire polished to have an open resistance of 3–5 MW with an internal solution containing […], 2 mM MgCl2, 10mM EGTA, 20 mM TEA-Cl, 10 mM D-glucose 10 mM Hepes, pH-adjusted to 7.3 with CsOH. Series resistances were kept under 10 MW. Capacitance and series resistance compensation were applied and set to 70%. All experiments were done at room temperature. Results are given as mean ±SEM, unless otherwise indicated. Analysis of variance was performed on currents and membrane conductance values, with post-hoc Dunn-Bonferroni test for significance of differences observed between two groups. A P value of 0.05 was considered significant.

[4] = measured 80 minutes after instillation

CC(C)(C)NCC(O)c1cc(O)cc(O)c1 (centres unmarked) [Terbutaline, reference compound]
Weight loss of ex vivo instilled rat lung over 80 min ([1]; Terbutalin 1 mM alone, individual lungs): 1035 mg and 872 mg and 1219 mg and 1119 mg and 822 mg and 1075 mg and 675 mg and 730 mg and 1000 mg and 923 mg and 880 mg and 702 mg
Weight loss of ex vivo instilled rat lung over 100 min ([1]; Terbutaline 1 mM + Chitobiose 500 μg): 800 mg
Weight loss of ex vivo instilled rat lung over 100 min ([1]; Terbutaline 1 mM alone, individual lungs): 805 mg and 1223 mg and 1425 mg and 1370 mg
clearing alveolar fluid content ex vivo [1]: capable of clearing alveolar fluid content

CC(C)C[C@@H]1NC(=O)[C@H](CCC(=O)O)NC(=O)[C@H](Cc2c[nH]c3ccccc23)NC(=O)[C@@H]2CCCN2C(=O)[C@H](CCCCN)NC(=O)[C@H]([C@@H](C)O)NC(=O)CNC(=O)[C@@H](N)CSSC[C@@H](C(=O)O)NC(=O)[C@H](Cc2ccc(O)cc2)NC(=O)[C@H](C)NC(=O)[C@@H]2CCCN2C(=O)[C@H](CCCCN)NC(=O)[C@H](CCC(=O)O)NC(=O)[C@H](CC(=O)O)NC(=O)[C@@H]2CCCN2C(=O)CNC1=O [cyclic mu scrambl Tip, reference compound] (H-CGTKPWELGPDEKPAYC-OH; disulfide 1-17)
endothelial flaps and epithelial blebs (electron microscopy) (isolated rat lungs): less evident

CGQREAPAGAAAKPWYC (disulfide 1-17) [hum mut Tip, reference compound]
pO2 blood gas levels ([2]; 6 to 90 minutes of LLOT, cyclic hum Ltip 500 μg/kg to 5 μg/kg, hum mut Tip 500 μg/kg): followed completely the values seen in the control animals
gain in pO2 blood gas ([2]; iv application): no effect
clearing alveolar fluid content ex vivo [1]: inactive

CGQRETPEGAEAKPWY (Biotin-CGQRETPEGAEAKPWY) [linear hum Ltip]
activity in fluid clearance [1, 4]: equally active
activity in fluid clearance ([1]; measuring for 100 minutes after instillation): less active
Weight loss of ex vivo instilled rat lung over 80 min ([1]; synthetic peptide 1000 μg/lung): 498 mg and 863 mg and 585 mg and 462 mg

CTPEGAEC (Biotin-CTPEGAEC; cysteine pairing not given here; listed as Mus musculus) [STip]
activity in fluid clearance [1, 4]: equally active
Weight loss of ex vivo instilled rat lung over 80 min ([1]; synthetic peptide 1000 μg/lung): 507 mg and 607 mg and 781 mg and 703 mg and 744 mg
Weight loss of ex vivo instilled rat lung over 100 min ([1]; synthetic peptide 1000 μg/lung): 836 mg and 535 mg and 684 mg and 891 mg and 849 mg
whole cell current / membrane conductance [3]: failed to induce a voltage-dependent current

GG-CCIPKDAPAGAALKPWYC [mutTip, reference compound]
whole cell current / membrane conductance [3]: inactive

GG-COTKPWELOPDEKPAYC [scramblTip, reference compound]
whole cell current / membrane conductance [3]: inactive
